From patent US6675105B2, “Structure-based identification of candidate compounds using three dimensional structures and models of Fc receptors” (Ilexus Pty Limited, priority 1998, dated 2004)

Legend:
[1] = tested on: monomeric human immunoglobulin IgG3; assay: BIAcore binding of PsFcγRIIa to immobilized monomeric human IgG3; conditions: two site binding fit, 22° C., HBS pH 7.4
Procedure: (§1) Analysis of the interaction between PsFcγRIIa and monomeric immunoglobulin was performed using a BIAcorea 2000 biosensor (available from Pharmacia Biotech, Uppsala, Sweden) at about 22° C. in Hepes buffered saline (HBS; 10 mM Hepes [N-2-hydroxyethylpiperazine-N′-2-ethanesulfonic acid, available from Commonwealth Serum Laboratories, Parkville, Australia], pH 7.4, 150 mM NaCl, 3.4 mM EDTA and 0.005% Surfactant, available from Pharmacia). About 4000 to about 6000 response units (RU) of monomeric human immunoglobulin subclasses IgG1, IgG2, IgG3, and IgE (50 μg/ml of each) were covalently coupled to separate carboxymethylated dextran surface of each CM5 sensor-chips (available from BIAcore, Uppsala, Sweden) using a amine coupling kit (available from BIAcore), according to manufacturer's methods. A series of PsFcγRIIa concentrations (about 0.001 to about 1 mg/ml protein) was injected over each sensor-chip surface for about 1 minute at about 20 μl/min followed by about 3 minute dissociation phase. Following administration of the protein, the immunoglobulin surface was regenerated on each chip using a buffer containing 50 mM diethylamine pH 11.5, and 1 M NaCl. […]

[2] = tested on: monomeric human immunoglobulin IgG1; assay: BIAcore binding of PsFcγRIIa to immobilized monomeric human IgG1; conditions: 22° C., HBS pH 7.4
Procedure: as §1

Sequence of monomeric human immunoglobulin IgG3 (P01860 99-377 isoform P01860-1 limits assumed): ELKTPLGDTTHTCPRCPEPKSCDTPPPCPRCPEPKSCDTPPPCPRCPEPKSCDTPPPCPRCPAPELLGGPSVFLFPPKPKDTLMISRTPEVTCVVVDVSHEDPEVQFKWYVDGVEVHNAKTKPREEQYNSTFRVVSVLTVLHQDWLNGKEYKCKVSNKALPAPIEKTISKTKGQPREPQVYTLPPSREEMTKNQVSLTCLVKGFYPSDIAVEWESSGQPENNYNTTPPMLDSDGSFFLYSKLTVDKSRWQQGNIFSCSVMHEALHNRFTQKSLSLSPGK
Sequence of monomeric human immunoglobulin IgG1 (P01857 99-223 limits assumed): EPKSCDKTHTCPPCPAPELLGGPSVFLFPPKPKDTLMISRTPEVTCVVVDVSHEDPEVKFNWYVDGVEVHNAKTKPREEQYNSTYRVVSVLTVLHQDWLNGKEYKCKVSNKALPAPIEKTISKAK

PsFcγRIIa: recombinant soluble human FcγRIIa protein from baculovirus-infected Sf-21 cells; two species, SEQ ID NO:3 and SEQ ID NO:12
affinity for IgG3 ([1]; at 50% of the sites): about 2.7×10^6 M^−1
affinity for IgG3 ([1]; at the remaining 50% of the sites): about 1.2×10^4 M^−1
affinity of PsFcγRIIa for IgG1 ([2]; at about 90% of the ligand binding sites): about 2.1×10^6 M^−1
affinity of PsFcγRIIa for IgG1 ([2]; at the remaining 10% of sites): about 2.3×10^4 M^−1
